Experimental data published in paper PMC7037052, “Predicting the Blood-Brain Barrier Permeability of New Drug-Like Compounds via HPLC with Various Stationary Phases” (Molecules, 2020).

Experiments:
Type in all cases: physicochemical
[1] = RP-HPLC retention on Purosphere RP-18e (ODS) column, buffer pH 7.4-acetonitrile; conditions: for log kw, ODS: extrapolated to buffer pH 7.4 as mobile phase, 25 °C; for s ODS: slope of Soczewiński-Wachtmeister equation, acetonitrile φ 0.3–0.6
Description: (§1) Retention parameters reported as the log k values were calculated by the expression:(1) logk=log(tR−t0)/t0 where tR and t0 are the retention times of the solute and a non-retained compound (citric acid), respectively. They were used to calculate the log kw values, i.e., logarithms of retention parameter in the buffer as the mobile phase. For this purpose the Soczewiński-Wachtmeister’s equation was used:log k = log kw − sφ(2) where φ is the volume fraction of organic modifier in the mobile phase; k and kw are retention parameters corresponding to mixed effluent and buffer as the mobile phase, respectively. The slope s is characteristic of a given solute and chromatographic system. Strong linear relationships between log k and φ values were found for all the compounds in the range of effluent composition examined (R^2 > 0.9). The log kw values determined for the ODS (log kw, ODS), IAM (log kw, IAM) and Cholester (log kw, Cholester) columns were intercorrelated and the following linear relationships with a very good statistical quality were obtained:log kw, ODS = 0.691(± 0.094) + 0.982(± 0.044) log kw, IAM(3) SD = 0.257; R^2 = 0.8880; N = 65 log kw, ODS = 0.911(± 0.062) + 0.765(± 0.025) log kw, Cholester(4) SD = 0.192; R^2 = 0.9371; N = 65 log kw, IAM = 0.356(± 0.073) + 0.721(± 0.029) log kw, Cholester(5) SD = 0.224; R^2 = 0.9068; N = 65
(§2) Shimadzu Vp (Shimadzu, Izabelin, Poland) liquid chromatographic system equipped with LC 10AT pump, SPD 10A UV-Vis detector, SCL 10A system controller, CTO-10 AS chromatographic oven and Rheodyne injector valve with a 20 µL loop was applied in HPLC measurements. Three stationary phases were employed: • Purosphere RP-18e (ODS), 125 × 4 mm i.d., 5 µm (Merck); • IAM.PC.DD2 100 × 4.6 mm i.d., 10 µm (Regis Chemicals Company, Morton Grove, IL, USA); • Cosmosil Cholester, 75 × 2 mm i.d., 2.5 µm (Genore, Warsaw, Poland).
(§3) As mobile phases buffer-acetonitrile mixtures were used. The buffer was prepared from 0.01 mol L^−1 solutions of Na2HPO4 and citric acid and the pH 7.4 value was fixed before mixing with organic modifier. With the ODS column acetonitrile concentration in the effluent, expressed as a volume fraction (φ, v/v), was changed in the range 0.3–0.6, with the constant step of 0.1. The flow rate was 1 mL min^−1. With the IAM column acetonitrile concentration was changed in the range 0.2–0.5, also with the constant step of 0.1 and the flow rate was 1.3 mL min^−1. With the Cosmosil Cholester column acetonitrile concentration was changed in the range 0.4–0.6, with the constant step of 0.05 and the flow rate was 0.4 mL min^−1. Samples of test compounds were dissolved in acetonitrile—c.a. 0.005 mg mL^−1. […] They were detected under UV light at 210 and 254 nm. All measurements were carried out at 25 °C. The dead time values were measured from non-retained compound (citric acid) peaks. All reported log kw values are the average of at least three independent measurements. The extrapolated retention coefficients (logs kw) achieved by HPLC on ODS, IAM and Cholester stationary phases were used for modelling the log BB permeation of 65 drug-like compounds employed as a whole test set (Table 1).

[2] = RP-HPLC retention on Cosmosil Cholester column, buffer pH 7.4-acetonitrile; conditions: for log kw, Cholester: extrapolated to buffer pH 7.4 as mobile phase, 25 °C; for s Cholester: slope of Soczewiński-Wachtmeister equation, acetonitrile φ 0.4–0.6
Description: as §1, §2, §3

[3] = RP-HPLC retention on IAM.PC.DD2 (immobilized artificial membrane) column, buffer pH 7.4-acetonitrile; conditions: for log kw, IAM: extrapolated to buffer pH 7.4 as mobile phase, 25 °C; for s IAM: slope of Soczewiński-Wachtmeister equation, acetonitrile φ 0.2–0.5
Description: as §1, §2, §3

Row | Structure (SMILES) | log kw, ODS [1] | s ODS [1] | log kw, Cholester [2] | s Cholester [2] | log kw, IAM [3] | s IAM [3]
1 | CCOC(=O)Cc1nnc2n(c1=O)CCN2c1ccc(Cl)c(Cl)c1 [Compound 17] | 3.16 | 5.33 | 2.77 | 4.61 | 2.42 | 5.01
2 | Cc1ccc(Cc2nnc3n(c2=O)CCN3c2ccc(C)cc2)cc1 [Compound 46] | 3.04 | 5.30 | 3.15 | 5.05 | 2.51 | 5.22
3 | COC(=O)Cc1nnc2n(c1=O)CCN2c1ccccc1 [Compound 7] | 1.28 | 3.09 | 0.58 | 1.92 | 0.81 | 2.38
4 | Cc1ccc(N2CCn3c2nnc(Cc2ccc(Cl)cc2)c3=O)cc1 [Compound 50] | 3.22 | 5.55 | 3.39 | 5.34 | 2.81 | 5.62
5 | O=c1c(-c2ccco2)nnc2n1CCN2c1cccc(Cl)c1 [Compound 25] | 2.75 | 4.85 | 2.36 | 4.05 | 2.08 | 4.55
6 | O=c1c(Cc2cccc(Cl)c2)nnc2n1CCN2c1ccc(Cl)cc1 [Compound 59] | 3.61 | 5.85 | 3.67 | 5.75 | 3.15 | 6.01
7 | O=c1c(-c2ccco2)nnc2n1CCN2c1ccc(Cl)cc1 [Compound 26] | 2.65 | 4.59 | 2.29 | 4.15 | 2.02 | 4.44
8 | Cc1ccc(N2CCn3c2nnc(Cc2cccc(Cl)c2)c3=O)cc1 [Compound 49] | 3.31 | 5.41 | 3.40 | 5.33 | 2.78 | 5.50
9 | CCOC(=O)Cc1nnc2n(c1=O)CCN2c1ccc(OC)cc1 [Compound 14] | 1.37 | 3.15 | 0.65 | 1.92 | 0.91 | 2.58
10 | O=c1c(-c2ccco2)nnc2n1CCN2c1ccc(Cl)c(Cl)c1 [Compound 27] | 3.46 | 5.68 | 2.92 | 4.85 | 3.23 | 6.30
11 | O=c1c(Cc2ccccc2Cl)nnc2n1CCN2c1ccc(Cl)cc1 [Compound 58] | 3.55 | 5.65 | 3.74 | 5.62 | 3.22 | 6.32
12 | CCOC(=O)Cc1nnc2n(c1=O)CCN2c1ccccc1 [Compound 12] | 1.75 | 3.61 | 1.11 | 2.55 | 1.21 | 3.11
13 | COc1ccc(N2CCn3c2nnc(-c2ccco2)c3=O)cc1 [Compound 23] | 1.91 | 3.82 | 1.53 | 3.05 | 1.19 | 3.13
14 | CCOc1ccc(N2CCn3c2nnc(Cc2ccc(Cl)cc2)c3=O)cc1 [Compound 55] | 3.32 | 5.66 | 3.36 | 5.35 | 2.72 | 5.44
15 | Cc1ccc(N2CCn3c2nnc(Cc2cccc(C)c2)c3=O)cc1 [Compound 47] | 3.09 | 5.24 | 3.09 | 5.06 | 2.59 | 5.14
16 | CCOC(=O)Cc1nnc2n(c1=O)CCN2c1ccc(C)cc1 [Compound 13] | 2.37 | 4.36 | 1.92 | 3.58 | 1.70 | 3.85

Second part, the molecule after the results:

Row | log kw, ODS [1] | s ODS [1] | log kw, Cholester [2] | s Cholester [2] | log kw, IAM [3] | s IAM [3] | Structure (SMILES)
17 | 3.59 | 5.85 | 2.90 | 4.80 | 2.48 | 5.18 | O=c1c(Cc2cccc(Cl)c2)nnc2n1CCN2c1ccccc1 [Compound 43]
18 | 3.35 | 5.55 | 2.74 | 4.59 | 2.15 | 4.69 | Cc1ccc(N2CCn3c2nnc(Cc2ccccc2)c3=O)cc1 [Compound 45]
19 | 2.59 | 4.62 | 2.27 | 3.80 | 1.71 | 3.91 | COc1ccc(N2CCn3c2nnc(-c2ccccc2)c3=O)cc1 [Compound 34]
20 | 3.23 | 5.44 | 2.84 | 4.70 | 2.41 | 5.01 | Cc1ccc(N2CCn3c2nnc(CCc2ccccc2)c3=O)cc1 [Compound 62]
21 | 1.22 | 3.02 | 0.46 | 1.70 | 0.80 | 2.51 | CCc1nnc2n(c1=O)CCN2c1ccccc1Cl [Compound 3]
22 | 3.09 | 5.33 | 2.80 | 4.61 | 2.14 | 4.48 | CCOc1ccc(N2CCn3c2nnc(-c2ccccc2)c3=O)cc1 [Compound 35]
23 | 2.43 | 4.39 | 2.03 | 3.68 | 1.69 | 3.90 | Cc1ccc(N2CCn3c2nnc(-c2ccco2)c3=O)cc1 [Compound 20]
24 | 3.01 | 4.95 | 2.34 | 4.05 | 2.02 | 4.31 | Cc1ccccc1N1CCn2c1nnc(Cc1ccccc1Cl)c2=O [Compound 56]
25 | 2.12 | 4.01 | 1.88 | 3.50 | 1.53 | 3.52 | Cc1ccccc1N1CCn2c1nnc(-c1ccccc1)c2=O [Compound 30]
26 | 3.12 | 5.11 | 3.24 | 4.90 | 2.65 | 5.21 | Cc1ccc(N2CCn3c2nnc(Cc2ccccc2Cl)c3=O)cc1 [Compound 48]
27 | 3.60 | 5.62 | 3.01 | 4.70 | 2.39 | 4.81 | O=c1c(Cc2ccc(Cl)cc2)nnc2n1CCN2c1ccccc1 [Compound 44]
28 | 2.80 | 4.92 | 2.33 | 4.02 | 2.07 | 4.45 | O=c1c(CCc2ccccc2)nnc2n1CCN2c1ccccc1 [Compound 61]
29 | 2.93 | 5.06 | 2.86 | 4.65 | 2.22 | 4.81 | Cc1ccc(N2CCn3c2nnc(-c2ccccc2)c3=O)cc1 [Compound 32]
